Reference: patent US20050197651A1, “Vaginal ring preparation and its application” (priority 2001, published 2005)

Experiment: Drug releasing test of the vaginal ring (shaking water bath, HPLC)
Format: physicochemical
Settings: device of the current invention vs prior art device, FIG. 4 vs FIG. 3 and FIG. 6 vs FIG. 5
Description: Drug Releasing Test: Devices used: 1. High Pressure Liquid Chromatography (HPLC). Shimadzu LC-1 OA T • 2. Shaking water bath: HZS-H Process: • 1. Tie the vaginal ring into a big test tube (125 ml). Add 100 ml distilled water into the tube under 37C. Shake the testing tube for 24 hours with shaking rate of 60/minute. Then take the vaginal ring out. • 2. The standard sample is the Mifepristone provided by Shanghai Family Planning Institute. • 3. C-18-[…] Analytic column (Brand: Shimadzu): Pre-set HPLC. The testing conditions are: • Wavelength 310 nm. • Sensitivity: 0.1 AUFS • Speed: 3 Atten. 5 • Flow phase: methanol: water=70:30 • Moving speed=1 ml/minute • Injection amount: 10 μl • Peak time: 5.48 minutes Take 23 μl/ml standard sample, 10 μl injection sample to get the peak area of 656504-656800. Prepare the calibration based on the amount contained in 100 ml.

| Compound | delivery rate over days, compared with prior art vaginal ring |
| --- | --- |
| CC#C[C@]1(O)CC[C@H]2[C@@H]3CCC4=CC(=O)CCC4=C3[C@@H](c3ccc(N(C)C)cc3)C[C@@]21C [Mifestone, Mifepristone] | significantly higher over a longer period of time |
| C#C[C@]1(O)CC[C@H]2[C@@H]3CCC4=Cc5oncc5C[C@]4(C)[C@H]3CC[C@@]21C [Danazol] | higher delivery rate of this drug over a longer period of time |
